Experimental data as given in PMC9236248, “Ucl fimbriae regulation and glycan receptor specificity contribute to gut colonisation by extra-intestinal pathogenic Escherichia coli” (PLoS Pathogens, 2022).
Values joined by “and” are separate entries in the source; they are usually repeats but may differ in a detail not shown here. Equal entries are not always repeated.

Legend:
UcaD^LD = UcaD^LD (Proteus mirabilis, UniProt B4EV65); experiment: Soaking of pre-formed UcaD^LD crystals with monosaccharides (X-ray crystallography); format: binding, P. mirabilis PM54; settings: 0.1-0.2 M monosaccharide, 48 hours soak
Procedure: Crystals were produced by the hanging drop method. Structural analyses were carried out using DALI [22], and PyMOL (http://www.pymol.org). Figures were generated using PyMOL. The UclD^LD structure was refined to final Rwork/Rfree values of 24.8%/30.6%; the UcaD^LD structure was refined to final Rwork/Rfree values of 16.9%/19.2%, respectively (Table A in S1 Text). For UcaD^LD:monosaccharide complexes, coordinates and structure factors have been deposited in the PDB with IDs 7MZQ (Fuc complex), 7MZR (Glc complex), and 7MZS (Gal complex).
157 flash-cooling in liquid nitrogen. X-ray diffraction data were collected from a single crystal at the
158 Australian Synchrotron MX2 beamline, using a wavelength of 0.9537 Å. Data collection was
159 performed using Blu-Ice software, indexed and integrated using MOSFLM and scaled with
160 AIMLESS within the CCP4 suite. The structure was solved by molecular replacement using
161 PHASER [23] and UclDLD as the template. The model was refined using Phenix and structure
The structure was refined to final Rwork/Rfree values
163 of 16.9 %/19.2 %, respectively (Table A in S1 Text). The final UcaDLD model contains residues 21-
165 disordered or flexible conformation in the crystals. Coordinates and structure factors have been
166 deposited in the PDB with ID 7MZO.
167 UcaDLD:monosaccharide complexes: Pre-formed UcaDLD and UclDLD crystals were soaked with
168 0.1-0.2 M of the monosaccharides Fuc, Glc, Gal, GlcNAc, GalNAc or Neu5Ac for 48 hours in the
169 crystallisation solution (0.1 M sodium citrate buffer pH 4.5-5.5, 2-3 M NaCl). The crystals were
170 cryoprotected in Paratone-N and flash-cooled at 100 K. X-ray diffraction data were collected from
171 single crystals on the MX2 beamline at the Australian Synchrotron, using a wavelength of 0.9537 Å.
172 The data-sets was processed using either MOSFLM (Gal complex), or XDS (Fuc and Glc complexes)
173 [27] and scaled using AIMLESS in the CCP4 suite. The structures were solved by molecular
174 replacement using PHASER [23] and ligand-free UcaDLD as the template. The models were refined
175 using Phenix, and structure validations were performed using MolProbity. Coordinates and
176 structure factors have been deposited in the PDB with IDs 7MZQ (Fuc complex), 7MZR (Glc
177 complex), and 7MZS (Gal complex).

UclD^LD [1] = biological target: T1, UclD^LD (Escherichia coli, UniProt Q8GA71); experiment: Glycan array analysis (358 glycan structures), UclD; settings: yes/no binding
T1 sequence (Q8GA71 21-221): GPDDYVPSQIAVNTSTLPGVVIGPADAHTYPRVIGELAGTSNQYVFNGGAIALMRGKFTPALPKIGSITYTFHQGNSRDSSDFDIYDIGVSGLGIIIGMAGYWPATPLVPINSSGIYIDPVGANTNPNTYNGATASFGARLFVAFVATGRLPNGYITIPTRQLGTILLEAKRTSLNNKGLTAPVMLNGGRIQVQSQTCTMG

OxyR-6xHis = biological target: T2, OxyR-6xHis (UniProt P0ACQ4); experiment: EMSA
T2 sequence: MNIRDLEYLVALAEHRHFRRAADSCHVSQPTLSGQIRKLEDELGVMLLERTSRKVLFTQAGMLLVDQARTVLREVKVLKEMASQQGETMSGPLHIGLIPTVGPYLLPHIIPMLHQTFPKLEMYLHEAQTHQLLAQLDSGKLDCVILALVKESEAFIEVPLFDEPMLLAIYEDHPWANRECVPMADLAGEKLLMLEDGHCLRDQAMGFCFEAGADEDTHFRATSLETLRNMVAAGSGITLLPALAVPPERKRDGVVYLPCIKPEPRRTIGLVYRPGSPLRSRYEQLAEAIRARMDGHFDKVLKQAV

UclD^LD [2] = biological target: T1, UclD^LD; experiment: SPR analysis of glycans on immobilized UclD lectin domain; parameters: species or system E. coli strain F11; settings: single cycle kinetics, read-out: KD, binding affinity to UclD^LD determined by SPR
Procedure: 126 described with minor modifications. Briefly, UclD and UcaD were immobilized onto flow cells
127 of a CM5 sensor chip using amine coupling at 20 µg/mL in 10 mM sodium acetate pH 4.0 and at a
128 flow rate of 5 µL/min for 10 minutes. Glycans were chosen based on positive glycan array results for
129 each of the proteins with each glycan run across a dilution range starting at a maximum concentration
130 of 100 µM and minimum concentrations tested being 1.6 nM using single cycle kinetics. Results were
131 analysed using the Biacore T200 evaluation software.
132 Crystallization and crystal structure determination.
133 UclDLD: UclDLD crystals were produced using the hanging drop method, with drops containing 1 µL
134 of protein (10 mg/mL) and 1 µL of well solution (20-25% w/v PEG 3350, 0.1 M Bis-Tris propane
135 pH 6.5, 0.2 M sodium iodide). The crystals appeared within 1-5 days. The crystals were cryoprotected
136 in glycerol (80% well solution and 20% (v/v) glycerol) before flash-cooling in liquid nitrogen. X-ray
137 diffraction data were collected from a single crystal at the Australian Synchrotron MX1 beamline,
138 using a wavelength of 0.9537 Å. Data collection was performed using Blu -Ice software, indexed
139 and integrated using MOSFLM and scaled with AIMLESS within the CCP4 suite. Molecular […]
142 we determined the UclDLD structure by SAD phasing using the CRANK2 [19] pipeline of the CCP4 […]

UclD = settings: galactose at 1 mM alone

UcaD^LD, sequence (B4EV65 entry or part of it): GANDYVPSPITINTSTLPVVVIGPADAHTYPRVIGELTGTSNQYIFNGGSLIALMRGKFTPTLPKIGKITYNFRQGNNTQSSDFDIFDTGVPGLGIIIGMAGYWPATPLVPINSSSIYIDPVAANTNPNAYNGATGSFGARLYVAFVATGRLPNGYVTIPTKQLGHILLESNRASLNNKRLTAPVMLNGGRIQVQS

Molecule	Monosaccharide electron density / binding in soaked UcaD^LD crystals (UcaD^LD)	other results
CC(=O)N[C@@H]1[C@@H](O)[C@H](O)[C@@H](CO)O[C@H]1O [GlcNAc, N-acetylglucosamine]	not	
OC[C@H]1OC(O)[C@H](O)[C@@H](O)[C@@H]1O (some centres unmarked) [Glc, glucose]	Clear monosaccharide electron density was observed	
C[C@H](O)[C@@H](O)[C@@H](O)[C@H](O)C=O [Fuc, fucose]	Clear monosaccharide electron density was observed	
lactosyl ceramide		Binding to UclD^LD on glycan array (UclD^LD [1]): did not identify interactions
CO[C@@H]1O[C@H](CO)[C@H](O)[C@H](O)[C@H]1O [β-methyl-galactose]	did not observe binding	
AATAGGTCGCTCATTTCAGGGTAAAGCATATCTTTTGTCATTACCAACACAATAAATATGGTTTTTGATCGTTTTTCCCGATCGTTTTAGCAATCATGATATGTGCAATCTATCATACGCTGGTTATCGATCGGTAAAAACATTTTGAAAATGATTGTTTTGTTGGGGATGATTGCTGAACAAATGATCAATACTGGAATTAAACAGGAATTCATTTTATGAAAATAAAAGTTATAGCATTGGCTACATTTGTTTCTGCTG (double strand) [Cy3-Pucl-78T]		binding (OxyR-6xHis): binds
CC(=O)N[C@H]1[C@H]([C@H](O)[C@H](O)CO)O[C@@](O[C@H]2[C@@H](O)[C@@H](CO)O[C@@H](O[C@@H]([C@H](O[C@@H]3O[C@@H](C)[C@@H](O)[C@@H](O)[C@@H]3O)[C@H](C=O)NC(C)=O)[C@H](O)CO)[C@@H]2O)(C(=O)O)C[C@@H]1O [SialylLewis X, Neu5Acα2-3Galβ1-4(Fucα1–3)GlcNAc]		Kd (UclD^LD [2]): 2.52 µM
CC(=O)N[C@H]1[C@H]([C@H](O)[C@H](O)CO)OC(O)(C(=O)O)C[C@@H]1O (some centres unmarked) [Neu5Ac, N-acetylneuraminic acid]	not	
O=C[C@H](O)[C@@H](O)[C@@H](O)[C@H](O)CO [galactose]	Clear monosaccharide electron density was observed	Response 15 seconds after injection-B (UclD): 6.3 RU and ~ 6.3 RU
asialo-GM1		Binding to UclD^LD on glycan array (UclD^LD [1]): did not identify interactions
